Data set [1] in a line: MTT cell viability assay (cytotoxicity) in H9c2 cardiomyocytes. In kind it is cell-based, rat. The following applies: rat, H9c2 cardiomyocytes, 24 h, MTT; for viability at 24 h, 10 µM / viability at 24 h, 20 µM: mean ± SD, n = 3; for IC50 at 24 h: H9c2 cardiomyocytes (embryonic heart-derived cells), stated for both types of cells. Here is the method:
(§1) The potential cytotoxicity of embelin (1) together with derivatives (4a–4m, 5a–5d, 6a–6m) was tested in cardiomyocytes and macrophages in order to ensure that compounds lack toxicity also in immune cells. Cell viability was determined by the MTT assay.[58] Four dihydroquinoline derivatives (4b, 4f, 4i, and 4m) and six quinoline compounds (6a, 6d, 6e, 6i, 6k, and 6m) maintained higher viable cell rates in both types of cells. IC50 values of these derivatives were higher than 40 μM and were selected for further analysis.
(§2) J774A.1 murine macrophage cells, H9c2 embryonic rat heart-derived cells, and MCF-7 breast cancer cells were purchased from American Type Cell Culture (ATCC, Manassas, VA, USA). Cells were cultured in Dulbecco’s modified Eagle medium with 10% fetal bovine serum and 1% penicillin/streptomycin (Lonza) and were maintained at 37 °C in a humidified incubator containing 5% CO2.
(§3) Cell viability was assessed by conducting an MTT [3-(4,5-dimethylthiazol-2-yl)-2,5-diphenyltetrazolium bromide dye] assay. Briefly, J 774A.1, H9c2, and MCF7 cells were seeded in 96-well plates for 24 h. Then, cells were treated with DOX in the absence or presence of compounds. MTT (Sigma) reagent was added to the medium for 1 h at 37 °C. Then, the formazan was dissolved in dimethyl sulfoxide (DMSO, 100 μL). Absorbance was measured at 540 nm with a microplate reader (BMG Labtech).

A short description of data set [2]: MTT cell viability assay (cytotoxicity) in J774 macrophages. Format: cell-based, murine. The settings on record: mouse. Here is the method: as §1, §2, §3
In general terms: Formazan colour is commonly taken as a measure of viable cells.

Data set [3] concerns MCF-7 human breast tumor cells. Kind of data set: Effect on chemotherapeutic activity of DOX, MTT. Format: cell-based. The settings on record: MCF-7 cells, compound 20 μM + DOX 1 μM, 24 h. How it is done: Next, cytotoxicity of the selected compounds was also tested in MCF-7 breast cancer cells to disconfirm that protective effects might antagonize the antitumor effects of doxorubicin.
Figure 4 Effects of derivatives 4i, 6a, 6d, 6e, 6k, and 6m on the chemotherapeutic activity of DOX in MCF-7 human breast tumor cells. Cells were co-treated with selected compounds at 20 μM and DOX (1 μM) for 24 h. Cell viability was measured by MTT assay. Results are reported as mean of cell viability ± SD (n = 3). ****p < 0.0001 vs DOX-treated cells.
as §3

Data set [4] concerns ROS in H9c2 cells. Kind of data set: Intracellular ROS levels, DCFH-DA assay. Format: cell-based, rat. The following applies: for ROS production on co-treatment with DOX: compound 20 μM + DOX 1 μM, 24 h, vs DOX-treated cells. How it is done:
Oxidative stress is produced by an imbalance between radical oxygen species (ROS) formation and endogenous antioxidant activation in reaction to cell injury, leading to myocardial toxicity. Accordingly, DOX-induced ROS production in the H9c2 cells was quantified with the DCFH-DA fluorogenic dye. […] No effects on ROS production were observed when compounds were incubated alone with cells. […] The inhibitory effects of embelin derivatives were similar to those induced by N-acetyl-cysteine (NAC), a well-known antioxidant.
Figure 5 Derivatives 4i, 6a, 6d, 6k, and 6m reduced ROS levels produced by DOX in H9c2 cells. Levels of ROS in H9c2 cells were measured fluorometrically after treatment with DOX (1 μM) alone or co-treatment with N-acetyl cysteine (NAC, 1 mM) or selected derivatives (20 μM) for 24 h, using the 2′,7′-dichlorfluorescein-diacetate (DCFH-DA) assay. Values are expressed as mean ± SD with respect to DOX-treated cells (n = 3). ****p < 0.0001 vs DOX-treated cells.
Intracellular ROS levels in H9c2 cells were evaluated by monitoring the oxidation of 2′,7′-dichlorfluorescein-diacetate (DCFH-DA) (Sigma) to fluorescent dichlorofluorescein. Cells were treated with DOX (1 μM) in the absence or presence of compounds or NAC as ROS inhibitor (1 mM) (Sigma). Then, cells were incubated with 10 μM DCFH-DA at 37 °C in the dark for 30 min. ROS level was fluorimetrically evaluated at 485/550 nm during 24 h.

Data set [5] has as its system H9c2 cardiomyocytes. Kind of data set: MTT cell viability assay (cytotoxicity) in H9c2 cardiomyocytes. In kind it is cell-based, rat. The following applies: Rattus norvegicus; H9c2 cardiomyocytes, 24 h, MTT; read-out: IC50 (loss in cell viability, DOX-treated vs untreated cells). How it is done: as §1, §2, §3

One may read the viability as the share of living cells, or the viability signal relative to a control. Low readings indicate a greater loss of cells, high ones better survival. The term melting point denotes the temperature of the solid-liquid transition. Molecule `CCCCCCCCCCCC1=C(O)C(=O)C2=C(Nc3ccccc3C2c2ccc(F)cc2)C1=O` (stereo not shown) [Compound 4e, 2-Hydroxy-9-(4-fluorophenyl)-3-undecyl-9,10-dihydroacridine-1,4-dione] showed a melting point of 140 to 142 °C. In data set [1], this molecule registered a viability at 24 h, 10 µM of 93.4 ± 7.2% and a viability at 24 h, 20 µM of 83.7 ± 1.5%. In data set [2], this molecule came in with a viability at 24 h, 10 µM of 57.3 ± 3.8% and a viability at 24 h, 20 µM of 44.6 ± 3.3%.
What is called IC50 is the concentration needed to halve the response being measured. As for `CCCCCCCCCCCC1=C(O)C(=O)C2=C(Nc3ccccc3C2c2cccc(F)c2)C1=O` (stereo not shown) [Compound 4f, 2-Hydroxy-9-(3-fluorophenyl)-3-undecyl-9,10-dihydroacridine-1,4-dione], the melting point lay within 240 to 242 °C. In data set [1], this molecule returned an IC50 at 24 h of more than 40 µM; a viability at 24 h, 10 µM of 88.7 ± 5.3%; a viability at 24 h, 20 µM of 81.1 ± 2.9%. For the same molecule, in data set [2], the half-maximal inhibitory concentration (IC50) at 24 h is more than 40 µM; the viability at 24 h, 10 µM turned out to be 99.5 ± 1.3%; the viability at 24 h, 20 µM came out at 97.8 ± 0.6%.
As to `CCCCCCCCCCCC1=C(O)C(=O)C2=C(Nc3ccccc3C2c2ccc(C(=O)OC)cc2)C1=O` (stereo not shown) [Compound 4g, Methyl 4-(2-hydroxy-1,4-dioxo-3-undecyl-1,4,9,10-tetrahydroacridin-9-yl)benzoate], the melting point is 146 to 148 °C. In data set [1], the viability at 24 h, 10 µM was 72.6 ± 1.1% and the viability at 24 h, 20 µM is 62.1 ± 1.3%. Also, in data set [2], the viability at 24 h, 10 µM came out at 31.2 ± 5.3% and the viability at 24 h, 20 µM came to 29.6 ± 3.9%.
Molecule `CCCCCCCCCCCC1=C(O)C(=O)C2=C(Nc3ccccc3C2c2ccsc2)C1=O` (stereo not shown) [Compound 4h, 2-Hydroxy-9-(thiophen-3-yl)-3-undecyl-9,10-dihydroacridine-1,4-dione] showed a melting point of 190 to 192 °C. For the same molecule, in data set [1], the viability at 24 h, 10 µM stood at 92.5 ± 6.6% and the viability at 24 h, 20 µM stood at 75.8 ± 2.3%. Further, in data set [2], the viability at 24 h, 10 µM was 84.9 ± 2.6% and the viability at 24 h, 20 µM worked out at 51.4 ± 2.9%.
With `CCCCCCCCCCCC1=C(O)C(=O)C2=C(Nc3ccccc3C2c2ccc(C)c(C)c2)C1=O` (stereo not shown) [Compound 4i, 2-Hydroxy-9-(3,4-dimethylphenyl)-3-undecyl-9,10-dihydroacridine-1,4-dione], the melting point is 106 to 108 °C. In data set [1], the half-maximal inhibitory concentration (IC50) at 24 h was more than 40 µM; the viability at 24 h, 10 µM was 84.3 ± 6.8%; the viability at 24 h, 20 µM stood at 82.2 ± 6.2%. In addition, in data set [3], the “Effect on antitumor (chemotherapeutic) activity of DOX” value (shortened to “Effect on antitumor”) is “without reducing DOX’s chemotherapeutic effect”. For the same molecule, in data set [4], the “ROS production on co-treatment with DOX” value is “significantly inhibited ROS production”. Besides, in data set [2], the IC50 at 24 h is more than 40 µM; the viability at 24 h, 10 µM came to 96.2 ± 6.8%; the viability at 24 h, 20 µM stood at 72.6 ± 1.7%.
Molecule `CCCCCCCCCCCC1=C(O)C(=O)C2=C(Nc3ccccc3C2c2ccc(OC)c(OC)c2)C1=O` (stereo not shown) [Compound 4j, 2-Hydroxy-9-(3,4-dimethoxyphenyl)-3-undecyl-9,10-dihydroacridine-1,4-dione] showed a melting point of 152 to 154 °C. In data set [1], the viability at 24 h, 10 µM was 68.9 ± 3.6% and the viability at 24 h, 20 µM is 60.6 ± 4.9%. Besides, in data set [2], the viability at 24 h, 10 µM turned out to be 89.1 ± 5.5% and the viability at 24 h, 20 µM was found to be 36.9 ± 3.8%.
For `CCCCCCCCCCCC1=C(O)C(=O)C2=C(Nc3ccc(OC)cc3C2c2ccc([N+](=O)[O-])cc2)C1=O` (stereo not shown) [Compound 4k, 2-Hydroxy-7-methoxy-9-(4-nitrophenyl)-3-undecyl-9,10-dihydroacridine-1,4-dione] the same measures were 153 to 155 °C, 99.7 ± 1.1%, 90.7 ± 1.5%, 55.6 ± 6.7% and 37.8 ± 4.8%.
The like results for `CCCCCCCCCCCC1=C(O)C(=O)C2=C(Nc3cc(C)cc(C)c3C2c2ccc([N+](=O)[O-])cc2)C1=O` (stereo not shown) [Compound 4l, 2-Hydroxy-6,8-dimethyl-9-(4-nitrophenyl)-3-undecyl-9,10-dihydroacridine-1,4-dione] were, in that order, 260 to 262 °C, 98.2 ± 6.6%, 88.3 ± 6.1%, 46.7 ± 6.6% and 33.1 ± 4.5%.
`CCCCCCCCCCCC1=C(O)C(=O)C2=C(Nc3ccc(Br)cc3C2c2ccc([N+](=O)[O-])cc2)C1=O` (stereo not shown) [Compound 4m, 7-Bromo-2-hydroxy-9-(4-nitrophenyl)-3-undecyl-9,10-dihydroacridine-1,4-dione] returned a melting point of 236 to 237 °C. In data set [1], the concentration for half-maximal inhibition (IC50) at 24 h is more than 40 µM; the viability at 24 h, 10 µM was 96.5 ± 5.5%; the viability at 24 h, 20 µM is 96.2 ± 4.8%. In data set [2], this molecule gave an IC50 at 24 h of more than 40 µM; a viability at 24 h, 10 µM of 94.7 ± 4.2%; a viability at 24 h, 20 µM of 77.2 ± 4.9%.
In data set [1], `CCCCCCCCCCCC1=C(O)C(=O)c2c(nc3ccccc3c2-c2ccc([N+](=O)[O-])cc2)C1=O` [Compound 6a, 2-Hydroxy-9-(4-nitrophenyl)-3-undecylacridine-1,4-dione] displayed a half-inhibitory concentration (IC50) at 24 h of more than 40 µM; a viability at 24 h, 10 µM of 97.6 ± 7%; a viability at 24 h, 20 µM of 87.8 ± 6.9%. The “Effect on antitumor” value in data set [3] is on record as “without reducing DOX’s chemotherapeutic effect”. In addition, in data set [4], the “ROS production on co-treatment with DOX” value is given as “significantly inhibited ROS production”. In data set [2], this molecule came in with an IC50 at 24 h of more than 40 µM; a viability at 24 h, 10 µM of 96.3 ± 2.1%; a viability at 24 h, 20 µM of 76.9 ± 2.8%.
In data set [1], `CCCCCCCCCCCC1=C(O)C(=O)c2c(nc3ccccc3c2-c2ccc(Br)cc2)C1=O` [Compound 6d, 2-Hydroxy-9-(4-bromophenyl)-3-undecylacridine-1,4-dione] registered an IC50 at 24 h of more than 40 µM; a viability at 24 h, 10 µM of 99.4 ± 0.2%; a viability at 24 h, 20 µM of 99.3 ± 2.6%. Further, the “Effect on antitumor” value in data set [3] was “without reducing DOX’s chemotherapeutic effect”. Besides, the “ROS production on co-treatment with DOX” value in data set [4] is on record as “significantly inhibited ROS production”. Also, in data set [2], the IC50 at 24 h is more than 40 µM; the viability at 24 h, 10 µM is 82.1 ± 3.7%; the viability at 24 h, 20 µM was determined as 74.5 ± 3.9%.
Consider `CCCCCCCCCCCC1=C(O)C(=O)c2c(nc3ccc(Br)cc3c2-c2ccc([N+](=O)[O-])cc2)C1=O` [Compound 6m, 7-Bromo-2-hydroxy-9-(4-nitrophenyl)-3-undecylacridine-1,4-dione], for which, in data set [1], the concentration for half-maximal inhibition (IC50) at 24 h was more than 40 µM; the viability at 24 h, 10 µM was 89.8 ± 7.6%; the viability at 24 h, 20 µM was found to be 85.9 ± 8.2%. In addition, the “Effect on antitumor” value in data set [3] is on record as “without reducing DOX’s chemotherapeutic effect”. In addition, the “ROS production on co-treatment with DOX” value in data set [4] was “significantly inhibited ROS production”. In addition, in data set [2], the IC50 at 24 h was more than 40 µM; the viability at 24 h, 10 µM came out at 99.6 ± 4.6%; the viability at 24 h, 20 µM turned out to be 86.4 ± 8.7%.
With `COc1cccc2c1C(=O)c1c(O)c3c(c(O)c1C2=O)C[C@@](O)(C(=O)CO)C[C@@H]3O[C@H]1C[C@H](N)[C@H](O)[C@H](C)O1` [DOX, Doxorubicin, reference compound], in data set [5], the IC50 stood at 0.83 µM. Further, in data set [4] (DOX 1 μM alone), the “Levels of ROS compared to untreated cells” value is recorded as “significantly increased the levels of ROS”.

Values taken from PMC9972480, “Synthesis of Quinoline and Dihydroquinoline Embelin Derivatives as Cardioprotective Agents” (Journal of Natural Products, 2023).
